Measurements as given in patent publication US20200078463A1, “COMPOSITION HAVING IMPROVED WATER SOLUBILITY AND BIOAVAILABILITY” (SAMYANG BIOPHARMACEUTICALS CORPORATION, priority 2017, published 2020).
Where a name gives a salt, the structure may show the parent alone.

Assay: Additive screening: dissolved sorafenib in pH 1.2 buffer by HPLC
Type: physicochemical
Details: 100 mg sorafenib tosylate (crystalline form III) + 10 mg additive in 1 ml pH 1.2 buffer, shaken at 1,100 rpm for 24 hours, filtered 0.45 μm
Protocol: In order to test the content of drug included in the formulation, it was analyzed by HPLC using the following test method.
(1) Buffer preparation: After dissolving 0.77 g ammonium acetate in 1000 ml of water, the pH of the solution was adjusted to 6.8±0.05 using ammonia solutions.
(2) The solution of (1) and acetonitrile were mixed at 40:60 (v/v), and the solution filtered with a filter paper having a pore size of 0.45 μm and degassed was used as a mobile phase.
The buffer solution (1) and acetonitrile were mixed at 30:70 (v/v) to obtain a dilution solution.
1 ml of the standard solution (300 μg/ml) was precisely taken, and 2 ml of the diluted solution was added to prepare a standard solution (100 μg/ml). 1 ml of the standard solution (300 μg/ml) was precisely taken, and 4 ml of the diluted solution was added to prepare a standard solution (60 μg/ml). 1 ml of the standard solution (100 μg/ml) was precisely taken, and 4 ml of the diluted solution was added to prepare a standard solution (20 μg/ml). A calibration curve was drawn using the four standard solutions and used to calculate the content of the test solution.
Detector: ultraviolet absorbance photometer (wavelength 265 nm)
Column: Eclipse XDB-C18, 4.6 mm×150 mm, 5 μm or equivalent column
Column temperature: 27° C.
It was shaken at 1,100 rpm for 24 hours. […]

With CNC(=O)c1cc(Oc2ccc(NC(=O)Nc3ccc(Cl)c(C(F)(F)F)c3)cc2)ccn1 [No polymer, sorafenib tosylate] the “Concentration of dissolved sorafenib” value was 0.1 µg/mL.
